For series [1], the system named is Escherichia coli serotype 0111:B4. Description: Bactericidal activity in liquid culture, E. coli 0111:B4. Format: cell-based. To be noted: for % bacteria killed: 10^7 E. coli 0111:B4 bacteria/ml LB medium at 37° C., concentration effective dose 3 (M^−6); for effect on cell-density of Gram-negative bacterial cultures: in words. The procedure: (§1) FIGS. 1A and 1B. The effect of synthetic peptides on the survival of E. coli 0111:B4 (panel A) or S. aureus (panel B). Logarithmically growing bacterial cells at a density of 10^7 cells/ml in Luria-Bertani (LB) medium were incubated with synthetic peptides at concentrations of 3, 5 and 7 μg/ml (1, 2 and 3 μM) at 37° C. for 1 h and the residual cell density expressed as a percentage of the value obtained from bacterial cultures without added peptides.
(§2) A peptide encompassing a selected LPS-binding domain from a well characterized human antiendotoxin protein, known as bactericidal/permeability increasing protein (BPI), from amino acids 85 to 102, denoted as BPI(85-102), was included for a direct comparison of the efficacy of the endotoxin-binding domain of a naturally occurring protein and the synthetic peptides of the invention. The amino acid sequence of the BPI(85-102) peptide is:
(§3) The BPI(85-102) reference peptide was synthesized as previously described for peptides of the invention and provided with a C-terminal Cys residue for the purpose of biotinylation as previously described. […] Incubation of various concentrations of the synthetic peptides according to the invention for a limited time period on the survival of both types of bacteria again illustrated their potent anti-microbial activity as opposed to that of the BPI(85-102) peptide (FIG. 1) with the sequence corresponding to that of the potential LPS binding domain of the native BPI protein. This is indicative of a broad specificity of the synthetic peptides, in keeping with the general bactericidal properties of this class of linear amphipathic α-helical peptides. […] The B2 residue in the N-terminal repetitive sequence element in each instance, instead of an aromatic amino acid residue, as specified by the formula of the invention, was replaced with an Ala residue and the hydrophobic (C2)n element made hydrophilic by substitution with Lys and Cys residues.

The subject of another series is Staphylococcus aureus. Put plainly: Bactericidal activity in liquid culture, S. aureus. Format: cell-based. To be noted: for % bacteria killed: 10^7 S. aureus bacteria/ml LB medium 37° C., concentration effective dose 3 (M^−6); for effect on cell-density of Gram-positive bacterial cultures: in words. The procedure:
as §1, §2, §3

Series [2] can be described thus: Turbidity assay of endotoxin complexation. The format is binding, Escherichia coli. To be noted: for avidity order (degree of insoluble peptide-endotoxin complex formation): 2-fold molar excess of synthetic peptide. On the procedure: FIG. 2. Endotoxin complexation activity of the synthetic peptides. Peptides at concentrations of 100 to 600 μg/ml were incubated with E. coli D31m4 Re or J5 LPS at 100 μg/ml in a total volume of 100 μl pyrogen-free phosphate buffered saline (PBS) in plastic ELISA microtiter plates for 30 min at 23° C. The turbidity produced by the insoluble peptide-endotoxin complexes was measured at 340 nm. The values represent the mean of three determinations and were corrected for controls containing the same concentrations of endotoxin or peptide.
(§4) Double-immunodiffusion of the peptides of the invention against ‘rough’ R-type E. coli D31m4 Re-LPS (List Biological Laboratories Inc., Calif.) or the structurally more complex ‘smooth’ S-type E. coli 0111:B4 LPS (Sigma Chemical Co., Rockford, Ill.) was performed in 0.8% (w/v) agarose containing 50 mM Tris and 0.1% (w/v) Triton X100, pH 7.5. for 16 h at 20° C. PmB and BPI(85-102) were included as control compounds for comparative purposes. The microprecipitates formed were visualized by Coommassie brilliant blue staining. […] Since the amount of precipitate formed is a function of valency, the peptides of the invention appear to be capable of a high degree of intermolecular binding of LPS molecules via the Lipid A moieties. […] A turbidity assay was employed for a direct comparison of the endotoxin-binding activity or avidity of selected synthetic peptides according to the invention using the ‘rough’ serotypes E. coli Re or Rc (J5) LPS. PmB and BPI(85-102) were included as control compounds for comparative purposes. The degree of precipitation of endotoxin by the synthetic peptides according to the invention was determined by measurement of the optical density of insoluble complexes formed at 340 nm (FIG. 2). In most instances optimal complexation of Re or J5 LPS by the synthetic peptides of the invention was evident at a molar ratio of peptide to endotoxin of 1 to 2. The control BPI(85-102) peptide was required at a 4-fold molar excess for approximately the same degree of complexation. […] There was no significant difference between complexation of Re or the structurally more complex J5-LPS by the synthetic peptides. […] The Lipid A binding affinity of the synthetic peptides were directly compared in a solid-state endotoxin-binding assay. Binding characteristics of biotinylated derivatives of the synthetic peptides BP1, BP2, BP2.1 and the control peptide BPI(85-102) were determined on ELISA microtiter plates coated with E. coli D31m4 Lipid A. Specific binding of the biotinylated peptides to the immobilized Lipid A was determined by development with Streptavidin-HRP and 3, 5, 3′, 5′ tetra-methylbenzidine (TMB) substrate and expressed as the corrected optical density at 450 nm. […] The affinity of the novel synthetic peptide BP2 for endotoxin of increasing complexity as well as the effect of plasma on binding was examined with the use of the ELISA microplate assay.

Series [3] in a line: Solid-state Lipid A binding ELISA microplate assay. The arrangement: species or system Escherichia coli. The conditions noted are these: for apparent binding affinity Ka for Lipid A: biotinylated derivatives, immobilized E. coli D31m4 Lipid A, Scatchard plot. On the procedure:
FIG. 3. Lipid A binding affinity of the synthetic peptides. Plastic ELISA microtiter plates were coated with purified E. coli D31m4 Lipid A at 1 μg/ml. Incubations were for 20 min with the indicated concentrations of synthetic peptides BP1, BP2 or BP2.1 or control peptide BPI(85-102) followed by streptavidin-HRP at a dilution of 1 in 20 000. Washing steps to remove excess peptide or streptavidin were with 50 mM Tris buffer pH 7.4 containing 0.05% (v/v) Tween 20. Development was with TMB substrate for 10 min. The optical density (O.D) at 450 nm was measured with a microplate reader and values were corrected for non-specific binding which was generally between 5 and 10%. The plotted values are the corrected means of triplicate experiments.
as §4

The nature of series [4]: ELISA binding to immobilized endotoxins of increasing complexity, effect of plasma. The arrangement: species or system Escherichia coli. The procedure:
FIG. 4. Effect of endotoxin complexity and plasma concentration on the binding of synthetic peptide BP2 of the invention to immobilized LPS. Coated ELISA microtiter plates containing E.coli D31m4 Lipid A, Re, J5 or 0111:B4 LPS were incubated with synthetic peptide at a concentration of 40 ng/ml in the presence of plasma at dilutions to 10% (v/v). Binding activity was determined by the ELISA microplate lipid A binding assay as previously described.
Double-immunodiffusion of the peptides of the invention against ‘rough’ R-type E. coli D31m4 Re-LPS (List Biological Laboratories Inc., Calif.) or the structurally more complex ‘smooth’ S-type E. coli 0111:B4 LPS (Sigma Chemical Co., Rockford, Ill.) was performed in 0.8% (w/v) agarose containing 50 mM Tris and 0.1% (w/v) Triton X100, pH 7.5. for 16 h at 20° C. PmB and BPI(85-102) were included as control compounds for comparative purposes. The microprecipitates formed were visualized by Coommassie brilliant blue staining. […] Since the amount of precipitate formed is a function of valency, the peptides of the invention appear to be capable of a high degree of intermolecular binding of LPS molecules via the Lipid A moieties. […] The degree of precipitation of endotoxin by the synthetic peptides according to the invention was determined by measurement of the optical density of insoluble complexes formed at 340 nm (FIG. 2). […]

A short description of series [5]: Tolerability of i.p. peptide in mice. The conditions noted are these: 2.5 and 5 mg/Kg i.p.; 2 week observation; Swiss mice. Format: in vivo.
The nature of series [6]: Double-immunodiffusion against Re-LPS. Format: binding, Escherichia coli. To be noted: 0.8% agarose, 16 h at 20° C.; data not shown. On the procedure: Double-immunodiffusion of the peptides of the invention against ‘rough’ R-type E. coli D31m4 Re-LPS (List Biological Laboratories Inc., Calif.) or the structurally more complex ‘smooth’ S-type E. coli 0111:B4 LPS (Sigma Chemical Co., Rockford, Ill.) was performed in 0.8% (w/v) agarose containing 50 mM Tris and 0.1% (w/v) Triton X100, pH 7.5. for 16 h at 20° C. PmB and BPI(85-102) were included as control compounds for comparative purposes. The microprecipitates formed were visualized by Coommassie brilliant blue staining. […] Since the amount of precipitate formed is a function of valency, the peptides of the invention appear to be capable of a high degree of intermolecular binding of LPS molecules via the Lipid A moieties. […] The degree of precipitation of endotoxin by the synthetic peptides according to the invention was determined by measurement of the optical density of insoluble complexes formed at 340 nm (FIG. 2). […] Binding characteristics of biotinylated derivatives of the synthetic peptides BP1, BP2, BP2.1 and the control peptide BPI(85-102) were determined on ELISA microtiter plates coated with E. coli D31m4 Lipid A. Specific binding of the biotinylated peptides to the immobilized Lipid A was determined by development with Streptavidin-HRP and 3, 5, 3′, 5′ tetra-methylbenzidine (TMB) substrate and expressed as the corrected optical density at 450 nm. […]

No end group written: not given here.

For GRLRKKWKAFKKFLKILAC [BP1], in series [1], the “% bacteria killed” value is recorded as 88% and the “effect on cell-density of Gram-negative bacterial cultures” value is listed as “dose-dependent reduction”. Further, in the series on Staphylococcus aureus, the “% bacteria killed” value stood at 34% and the “effect on cell-density of Gram-positive bacterial cultures” value is on record as “dose-dependent reduction”. The “avidity order (degree of insoluble peptide-endotoxin complex formation)” value (shortened to “avidity order”) in series [2] is “BP2.1>BP2.2>BP2>BP1>PmB >BPI(85-102)”. In series [3], the “difference in binding affinity for Lipid A compared with BPI(85-102)” value is recorded as “approximately 5 fold” and the “apparent binding affinity Ka for Lipid A” value turned out to be 9e+07 M⁻¹.

For the substance “GKWKLFKKAFKKFLKILAC-OH [BP2, Gly-Lys-Trp-Lys-Leu-Phe-Lys-Lys-Ala-Phe-Lys-Lys-Phe-Leu-Lys-Ile-Leu-Ala-Cys]”, in series [1], the “effect on cell-density of Gram-negative bacterial cultures” value is given as “dose-dependent reduction”. In the series on Staphylococcus aureus, the “effect on cell-density of Gram-positive bacterial cultures” value was “dose-dependent reduction”. The “avidity order” value in series [2] was “BP2.1>BP2.2>BP2>BP1>PmB >BPI(85-102)”. For the same substance, in series [3], the “difference in binding affinity for Lipid A compared with BPI(85-102)” value is reported as roughly 10 fold, the “fold higher affinity for Lipid A compared with Polymyxin B” value is on record as “approximately 20 fold” and the “apparent binding affinity Ka for Lipid A” value was 1.9e+08 M⁻¹. The “degree of binding versus complexity of immobilized LPS” value in series [4] (peptide 40 ng/ml) is reported as “decreases with increasing complexity of immobilized LPS”. The “effect of plasma on binding to endotoxins” value in series [4] (up to 5% (v/v) heat-treated, clarified plasma) is on record as “no significant effect”. Further, the tolerability result in series [5] was “well tolerated with no adverse effects”.

In the case of “Ile-Lys-Ile-Ser-Gly-Lys-Trp-Lys-Ala-Gin-Lys-Arg-Phe-Leu-Lys-Met-Ser-Gly-(Cys) (IKISGKWKAQKRFLKMSGC; listed as Homo sapiens) [BPI(85-102), reference compound]”, in series [1], the “% bacteria killed” value was 31% and the “effect on cell-density of Gram-negative bacterial cultures” value is on record as “slight effect”. Further, in the series with Staphylococcus aureus, the “% bacteria killed” value is 0% and the “effect on cell-density of Gram-positive bacterial cultures” value is listed as “no effect”. For the same substance, the “precipitation of Re LPS” value in series [6] is listed as “considerably less”. Also, in series [2], the “avidity order” value is “BP2.1>BP2.2>BP2>BP1>PmB >BPI(85-102)”. Further, the “molar excess required for approximately the same degree of complexation” value in series [2] (Re or J5 LPS) came out at 4 fold. Besides, in series [3], the “apparent binding affinity Ka for Lipid A” value was determined as 2e+07 M⁻¹.

The values are drawn from patent publication US6624140B1, “Synthetic peptides with antimicrobial and endotoxin neutralizing properties for management of the sepsis syndrome” (Academisch Ziekenhuis Bij de Universiteit van Amsterdam …, priority 1997, dated 2003).
